Data from patent US20100086483A1, “METHOD OF MULTIDETECTOR COMPUTED TOMAGRAPHY” (Gilead Palo Alto, Inc., priority 2008, published 2010).

Tests used:
[1] = system: conscious dogs; experiment: Effects of caffeine alone on MAP and HR in conscious dogs (Part I); format: in vivo, dog
Experimental: Sixteen chronically instrumented male mongrel dogs weighing from 22-30 kg were used in the study. The animal protocol was approved by the Institutional Animal Care and Use Committee of New York Medical College and conforms to the Guide for the Care and Use of Laboratory Animal by the United States National Institutes of Health.
Dogs were sedated with acepromazine (0.3 mg/kg, IM) and anesthetized with pentobarbital sodium (25 mg/kg, IV). After intubation, dogs were artificially ventilated with room air. A thoracotomy was made in the fifth intercostal space using sterile techniques. A Tygon catheter (Cardiovascular Instruments, Wakefield, Mass.) was inserted into the descending thoracic aorta and another one was inserted into the left atrium. In 9 dogs, an ultrasound flow transducer (Transonic Systems, Ithaca, N.Y.) was placed around the left circumflex coronary artery. A solid-state pressure gauge (P6.5, Konisberg Instruments, Pasadena, Calif.) was placed into the left ventricle through the apex. The chest was closed in layers. The catheters and wires were tunneled subcutaneously and externalized through the skin at the back of the dog's neck. Dogs were allowed to recover from the surgery before experiments were performed, and were trained to lie on a table.
Phasic arterial pressure was measured by connecting the aortic catheter to a strain gauge transducer (P23 ID, LDS Test and Measurement, Valley View, Ohio). Left ventricular pressures were measured by the solid pressure gauge. CBF (mL/min) was measured from an ultrasound flow transducer using a Transonic flowmeter (T206, Transonic Systems, Ithaca, N.Y.). Two indices were used to describe the regadenoson-induced coronary vasodilation: 1) the maximum increase in CBF and 2) the duration of the 2-fold increase in CBF (the period of time that CBF was elevated to a level ≧2-fold of baseline CBF). All pressure and flow data were acquired and analyzed using a Ponemah System (Version 3.30 or 4.20, LDS Test and Measurement, Valley View, Ohio). MAP and HR were calculated from phasic blood pressure, and LV dP/dtMax was calculated from the left ventricular systolic pressure.
On the day of an experiment, a dog was placed on a table, where it lay quietly during the experiment. A catheter was inserted into a peripheral vein in the leg and attached to an infusion line to administer drugs without disturbing the dog. The experiment was begun after MAP, HR and CBF were stable.
Three experiments were performed on each dog in the group.
The statistical significance of a difference between the value of a parameter at baseline and at the indicated time point after drug administration was determined using a One-Way Repeated Measures ANOVA followed by Tukey's Test. […] Results with p<0.05 were considered to be significant. A computer-based software package (SigmaStat 2.03) was used for statistical analysis. All data are presented as Mean±SEM.

[2] = Plasma regadenoson concentrations in conscious dogs; format: in vivo, dog
Experimental: Each dog received an IV injection of 5 μg/kg of regadenoson. […] LVSP, LV dP/dtMax, MAP, HR and CBF were recorded continuously. Blood samples were taken from the left atrial catheter at 1, 3, 5, 15, 30, 45 and 60 min following injections of regadenoson.

Cn1c(=O)c2c(ncn2C)n(C)c1=O [Caffeine, caffeine]
changes in MAP and HR ([1]; caffeine 2 mg/kg IV): no significant changes | HR ([1]; caffeine 2 mg/kg IV, 2.5 min): 95 ± 5 beats/min | HR ([1]; caffeine 2 mg/kg IV, 5 min): 91 ± 5 beats/min | HR ([1]; caffeine 2 mg/kg IV, 15 min): 85 ± 6 beats/min | HR ([1]; caffeine 2 mg/kg IV, 30 min): 81 ± 7 beats/min | HR ([1]; caffeine 2 mg/kg IV, 60 min): 90 ± 9 beats/min | HR ([1]; caffeine 2 mg/kg IV, 90 min): 87 ± 5 beats/min | HR ([1]; caffeine 2 mg/kg IV, 120 min): 88 ± 6 beats/min | change in HR ([1]; caffeine 4 mg/kg IV): without a significant change | HR ([1]; caffeine 4 mg/kg IV, 2.5 min): 104 ± 5 beats/min | HR ([1]; caffeine 4 mg/kg IV, 5 min): 102 ± 4 beats/min | HR ([1]; caffeine 4 mg/kg IV, 15 min): 88 ± 6 beats/min | MAP ([1]; caffeine 4 mg/kg IV, 15 min): 99 ± 4 mm Hg | HR ([1]; caffeine 4 mg/kg IV, 30 min): 90 ± 7 beats/min | HR ([1]; caffeine 4 mg/kg IV, 60 min): 85 ± 7 beats/min | HR ([1]; caffeine 4 mg/kg IV, 90 min): 90 ± 7 beats/min | HR ([1]; caffeine 4 mg/kg IV, 120 min): 86 ± 5 beats/min | increase in MAP ([1]; caffeine 4 mg/kg IV, at both 2.5 and 5 min after injection): ~12 mm Hg | HR ([1]; caffeine 10 mg/kg IV, 2.5 min): 100 ± 4 beats/min | HR ([1]; caffeine 10 mg/kg IV, 5 min): 101 ± 4 beats/min | HR ([1]; caffeine 10 mg/kg IV, 15 min): 93 ± 5 beats/min | HR ([1]; caffeine 10 mg/kg IV, 30 min): 87 ± 5 beats/min | MAP ([1]; caffeine 10 mg/kg IV, 30 min): 101 ± 3 mm Hg | HR ([1]; caffeine 10 mg/kg IV, 60 min): 83 ± 2 beats/min | HR ([1]; caffeine 10 mg/kg IV, 90 min): 80 ± 5 beats/min | HR ([1]; caffeine 10 mg/kg IV, 120 min): 80 ± 4 beats/min | MAP ([1]; caffeine 10 mg/kg IV, 120 min): 102 ± 2 mm Hg

CNC(=O)c1cnn(-c2nc(N)c3ncn([C@@H]4O[C@H](CO)[C@@H](O)[C@H]4O)c3n2)c1 [Regadenoson, (1-{9-[(4S,2R,3R,5R)-3,4-dihydroxy-5-(hydroxymethyl)oxolan-2-yl]-6-aminopurin-2-yl}pyrazol-4-yl)-N-methylcarboxamide]
pharmacokinetic profiles of regadenoson in presence of caffeine ([2]; caffeine at 1, 2, 4 or 10 mg/kg): not changed | time of peak plasma regadenoson concentration ([2]; regadenoson 5 μg/kg IV, absence of caffeine): ~1 min
